According to patent US20250250559A1, “METHOD TO ANALYZE AND OPTIMIZE GENE EDITING MODULES AND DELIVERY APPROACHES” (Hoffmann-La Roche Inc., priority 2016, published 2025):
Several values for one entry are separate records, joined by “and”; a condition that tells them apart may be missing. Equal entries are not always repeated.

Assays:
DPH1 gene [1] = assay: PM resistant colony count after DPH1 gene editing (PAC cassette integration); assay type: cell-based, human; conditions: for # of PM resistant colonies (40,000 seeded cells): MCF7, individual samples A-D; for # of PM resistant colonies (mean of the samples) / # of PM resistant colonies: TF eff. = 38%; for # of PM resistant colonies: DPH1 assay (integr. vs. k.o.), individual samples; for # of PM resistant colonies (80,000 seeded cells): DPH1 assay editing entities, MCF-7, individual replicates, TF eff. = 33%
Procedure: MCF7 cells (Brooks, et al. 1973) were originally obtained from ATCC (subsequently propagated in an in-house cell bank) and maintained in RPMI […] medium supplemented with 10% FCS, 2 mM L-Glutamine and penicillin/streptomycin at 37° C. and 85% humidity. For transfection of plasmids harboring gene-editing modules, 3,000,000 cells were seeded in a 10 cm diameter culture dish and cultivated at 37° C. and humidified 5% CO2. 24 h after seeding, cells were transfected with 20 μg total DNA using JetPEI (Polyplus) according to the manufacturer's protocol but with an N/P ratio of 6:1. Transfection efficiency was determined after 24 h by flow cytometry (FACS Calibur, BD biosciences) of cells that were transfected with a modified eGFP expression plasmid (Zhang, et al. 1996).
Plasmids encoding CRISPR/Cas9 gene-editing entities (i.e. knock-out and integration systems) against Dph1 (gRNA target sequence: […] (SEQ ID NO: 01) derived from RefSeq: NM_001383) and Dph2 (gRNA target sequence: […] (SEQ ID NO: 02) derived from RefSeq: NM_001039589, NM_001384), and scrambled control (gRNA sequence: […] (SEQ ID NO: 03)) were obtained from OriGene. This system comprises one plasmid expressing a ˜100 nt gRNA under control of a U6 promoter as well as Cas9 nuclease under control of a CMV promoter and a Donor plasmid with a promoter-less GFP/PM expression cassette flanked by homologous arms to the target gene (Dph1 or Dph2). Additional Dph1 gRNA sequence variants of different sizes (OriGene) […]
MCF7 cells which have all chromosomal copies of DPH1 or DPH2 inactivated are resistant to diphtheria toxin (Stahl, et al. 2015). Thus, occurrence and frequency of toxin resistant cells/colonies upon CRISPR/Cas inflicted gene inactivation provides a measure for efficiency of inactivation of all gene copies. Therefore, MCF/cells were transfected as described in Example 1 with (i) a GFP expression plasmid as transfection control, (ii) the CRISPR/Cas9 Dph1 or Dph2 knock-out/integration system and (iii) knock-out/integration entities containing a scrambled gRNA to determine Cas9 independent integration frequencies. After determination of transfection efficiency, cells were seeded in 6-well plates. […] RPMI medium was exchanged by RPMI medium containing DT or PM or both toxins 3 days after cell seeding. Exchange of medium was repeated every 2-3 days until all dead cells were removed from the plates and actively growing colonies could be detected via microscopic inspection. Thereafter (between day 12 and day 14 after start of toxin exposure), cells were washed 3 times with PBS and subsequently stained with ice cold methylene blue (0.2% in 50% EtOH). Methylene blue solution was subsequently removed and the plates were carefully washed under running water. Finally, cell colonies were counted under the microscope with a 5 mm grid foil.
CRISPR/Cas module for targeted integration contains a puromycin (PM) resistance gene expression cassette without promoter to avoid transient expression. Thus, detection of integration of recombinant sequences into the genome was detected by determining sensitivity of cells towards PM. A concentration of […] PM (which quantitatively eliminates wildtype MCF7 cells) was applied to select MCF7 cells with stably integrated expression cassettes. PM-resistant colonies selected with the same procedure as described above for the DT selection and visualized and quantified (between 12 and 14 days after start of selection) in the same manner as described above for toxin resistant colonies. Number of PM resistant colonies obtained with non-target guide sequences (scrambled gRNA, FIG. 1) reflect the nonspecific integration background. Increase in colonies (above nonspecific background) obtained with target-gene gRNAs which are PM-resistant but toxin sensitive reflect integration into just one target allele, leaving the other dph1 or dph2 allele unaffected. […]

DPH1 gene [2] = assay: DT + PM double resistant colony count after DPH1 gene editing (integration with inactivation); assay type: cell-based, human; conditions: for # of DT + PM resistant colonies (40,000 seeded cells) / # of DT + PM resistant colonies (40,000 seeded cells) (unheaded second sub-column: mean): DPH1 (gRNA length), TF eff. = 31%; for # of DT + PM resistant colonies (40,000 seeded cells) / # of PM + DT resistant colonies (40,000 seeded cells): MCF7, individual samples A-D; for # of PM + DT resistant colonies (40,000 seeded cells) / # of PM + DT resistant colonies (40,000 seeded cells) (unheaded second sub-column: mean): DPH1 assay (integr. vs. (integr. + k.o.)), TF eff. = 67*%; for # of DT + PM resistant colonies (80,000 seeded cells): DPH1 assay editing entities, MCF-7, individual replicates, TF eff. = 33%
Procedure: MCF7 cells (Brooks, et al. 1973) were originally obtained from ATCC (subsequently propagated in an in-house cell bank) and maintained in RPMI 1641 medium supplemented with 10% FCS, 2 mM L-Glutamine and penicillin/streptomycin at 37° C. and 85% humidity. For transfection of plasmids harboring gene-editing modules, 3,000,000 cells were seeded in a 10 cm diameter culture dish and cultivated at 37° C. and humidified 5% CO2. 24 h after seeding, cells were transfected with 20 μg total DNA using JetPEI (Polyplus) according to the manufacturer's protocol but with an N/P ratio of 6:1. Transfection efficiency was determined after 24 h by flow cytometry (FACS Calibur, BD biosciences) of cells that were transfected with a modified eGFP expression plasmid (Zhang, et al. 1996).
MCF7 cells which have all chromosomal copies of DPH1 or DPH2 inactivated are resistant to diphtheria toxin (Stahl, et al. 2015). Thus, occurrence and frequency of toxin resistant cells/colonies upon CRISPR/Cas inflicted gene inactivation provides a measure for efficiency of inactivation of all gene copies. Therefore, MCF/cells were transfected as described in Example 1 with (i) a GFP expression plasmid as transfection control, (ii) the CRISPR/Cas9 Dph1 or Dph2 knock-out/integration system and (iii) knock-out/integration entities containing a scrambled gRNA to determine Cas9 independent integration frequencies. After determination of transfection efficiency, cells were seeded in 6-well plates. For quantification of homozygous knock-out events by DT 20000 cells were seeded and for quantification of integration events by PM or both events 40000 cells were seeded. RPMI medium was exchanged by RPMI medium containing DT or PM or both toxins 3 days after cell seeding. Exchange of medium was repeated every 2-3 days until all dead cells were removed from the plates and actively growing colonies could be detected via microscopic inspection. Thereafter (between day 12 and day 14 after start of toxin exposure), cells were washed 3 times with PBS and subsequently stained with ice cold methylene blue (0.2% in 50% EtOH). Methylene blue solution was subsequently removed and the plates were carefully washed under running water. Finally, cell colonies were counted under the microscope with a 5 mm grid foil.
CRISPR/Cas module for targeted integration contains a puromycin (PM) resistance gene expression cassette without promoter to avoid transient expression. Thus, detection of integration of recombinant sequences into the genome was detected by determining sensitivity of cells towards PM. A concentration of 500 ng/μL PM (which quantitatively eliminates wildtype MCF7 cells) was applied to select MCF7 cells with stably integrated expression cassettes. PM-resistant colonies selected with the same procedure as described above for the DT selection and visualized and quantified (between 12 and 14 days after start of selection) in the same manner as described above for toxin resistant colonies. Number of PM resistant colonies obtained with non-target guide sequences (scrambled gRNA, FIG. 1) reflect the nonspecific integration background. Increase in colonies (above nonspecific background) obtained with target-gene gRNAs which are PM-resistant but toxin sensitive reflect integration into just one target allele, leaving the other dph1 or dph2 allele unaffected. PM resistant colonies that are also DT resistant have the expression cassette integrated into at least target allele and the other allele either inactivated or inactivated accompanied by yet another integration event.

[3] = DPH1 (gRNA length), TF eff. = 31%
[4] = DPH1 assay (integr. vs. (integr. + k.o.)), TF eff. = 67*%
[5] = DPH1 assay (integr. vs. k.o.), 10,000 seeded cells
[6] = DPH1 assay (integr. vs. k.o.), 20,000 seeded cells
[7] = DPH1 assay (integr. vs. k.o.), 40,000 seeded cells

Substance	# of PM resistant colonies (40,000 seeded cells) (unheaded second sub-column: mean) (DPH1 gene [1]; [3])	# of PM resistant colonies (40,000 seeded cells) (unheaded second sub-column: mean) (DPH1 gene [1]; [4])	# of PM resistant colonies (mean of the samples) (DPH1 gene [1]; [5])	# of PM resistant colonies (mean of the samples) (DPH1 gene [1]; [6])	# of PM resistant colonies (mean of the samples) (DPH1 gene [1]; [7])	# of PM resistant colonies (DPH1 gene [1]; MCF7, 10,000 seeded cells)	# of PM resistant colonies (DPH1 gene [1]; MCF7, 20,000 seeded cells)	# of PM resistant colonies (DPH1 gene [1]; MCF7, 40,000 seeded cells)	# of PM resistant colonies (80,000 seeded cells) (DPH1 gene [1])	# of DT + PM resistant colonies (40,000 seeded cells) (DPH1 gene [2])	# of DT + PM resistant colonies (40,000 seeded cells) (unheaded second sub-column: mean) (DPH1 gene [2])	# of PM + DT resistant colonies (40,000 seeded cells) (DPH1 gene [2])	# of PM + DT resistant colonies (40,000 seeded cells) (unheaded second sub-column: mean) (DPH1 gene [2])	# of DT + PM resistant colonies (80,000 seeded cells) (DPH1 gene [2])	also measured
20 mer SpCas9 DPH1 gRNA: Plasmids encoding SpCas9 and Dph1 gRNA (target CAGGGCGGCCGAGACGGCCC, SEQ ID NO: 01) plus PAC donor plasmid, OriGene	15	24	9	13	24	7 and 10 (2×) and 29	18 and 13 (2×) and 6	29 and 12 and 30 and 24	14 and 11 and 9 and 10	6 and 5 and 7 (2×)	6	15 and 13 and 11 and 12	13	5 and 4 and 3	# of PM resistant colonies (40,000 seeded cells) (DPH1 gene [1]; [3]): 16 (2×) and 20 and 8; # of PM resistant colonies (40,000 seeded cells) (DPH1 gene [1]; DPH1 (gRNA length), TF eff. = 31%, listed as 20 mer Dph1 CRISPR Cas9 gRNA): 16 (2×) and 20 and 8; # of PM resistant colonies (40,000 seeded cells) (DPH1 gene [1]; [4]): 25 (2×) and 22 and 24; # of PM resistant colonies (40,000 seeded cells) (DPH1 gene [1]; DPH1 assay (integr. vs. (integr. + k.o.)), TF eff. = 67*%, listed as Dph1 CRISPR Cas9 gRNA): 25 (2×) and 22 and 24; # of PM resistant colonies (DPH1 gene [1]; MCF7, 10,000 seeded cells, listed as CRISPR Cas9 Dph1 gRNA): 7 and 10 (2×); # of PM resistant colonies (DPH1 gene [1]; MCF7, 20,000 seeded cells, listed as CRISPR Cas9 Dph1 gRNA): 18 and 13 (2×) and 6; # of PM resistant colonies (DPH1 gene [1]; MCF7, 40,000 seeded cells, listed as CRISPR Cas9 Dph1 gRNA): 29 and 12 and 30 and 24; integration efficacy in dependence on gRNA length (DPH1 gene [1]; PMr colonies): Targeted integration clearly above background was observed; # of DT + PM resistant colonies (40,000 seeded cells) (DPH1 gene [2]; listed as 20 mer Dph1 CRISPR Cas9 gRNA): 6 and 5 and 7 (2×); # of PM + DT resistant colonies (40,000 seeded cells) (DPH1 gene [2]; listed as Dph1 CRISPR Cas9 gRNA): 15 and 13 and 11 and 12
20 mer SpCas9 scRNA: Scrambled control gRNA GCACTACCAGAGCTAACTCA (SEQ ID NO: 03) with SpCas9 and donor plasmid [reference compound]	8	11	3	9	12	3 (2×) and 2 and 4	11 and 7 and 10 and 9	17 and 13 and 9 and 10	4 and 3 and 5	0	0	0	0	0	# of PM resistant colonies (40,000 seeded cells) (DPH1 gene [1]; DPH1 (gRNA length), TF eff. = 31%, listed as 20 mer scRNA): 7 and 6 and 9 and 10; # of PM resistant colonies (40,000 seeded cells) (DPH1 gene [1]; DPH1 assay (integr. vs. (integr. + k.o.)), TF eff. = 67*%, listed as 20 mer scRNA): 10 (2×) and 9 and 16; # of PM resistant colonies (40,000 seeded cells) (DPH1 gene [1]; DPH1 assay (integr. vs. (integr. + k.o.)), TF eff. = 67*%, listed as SCRNA): 16; # of PM resistant colonies (40,000 seeded cells) (DPH1 gene [1]; DPH1 assay (integr. vs. (integr. + k.o.)), TF eff. = 67*%, listed as scRNA): 10 (2×) and 9; # of PM resistant colonies (DPH1 gene [1]; MCF7, 10,000 seeded cells, listed as CRISPR Cas9 SCRNA): 3 (2×) and 2 and 4; # of PM resistant colonies (DPH1 gene [1]; MCF7, 20,000 seeded cells, listed as CRISPR Cas9 SCRNA): 11 and 10 and 9; # of PM resistant colonies (DPH1 gene [1]; MCF7, 20,000 seeded cells, listed as CRISPR Cas9 scRNA): 7; # of PM resistant colonies (DPH1 gene [1]; MCF7, 40,000 seeded cells, listed as CRISPR Cas9 SCRNA): 17 and 9 and 10; # of PM resistant colonies (DPH1 gene [1]; MCF7, 40,000 seeded cells, listed as CRISPR Cas9 scRNA): 13; fold less PMr colonies than with DPH1-specific gRNA (DPH1 gene [1]; otherwise identical conditions): 2 fold
